Holding throughout (assay): growth of human tumour cells (NCI), 48 h
Test [1] has as its system A498.
Test [2] deals with ACHN.
Test [3] has as its system EKVX.
For test [4], the system named is HCT-116.
Test [5] has as its system HCT-15.
For test [6], the system named is HT-29.
The subject of test [7] is IGROV-1.
For test [8], the system named is MOLT-4.
The subject of test [9] is NCI-H23.
Test [10] has as its system NCI-H460.
Test [11] deals with OVCAR-3.
Test [12] concerns OVCAR-5.
Test [13] relates to RPMI-8226.
The test system of test [14] is SF-295.
Test [15] concerns SK-OV-3.
For test [16], the system named is TK-10.
Test [17] relates to UACC-62.

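Step 1: Grow cells in 96-well plates. Step 2: Expose to compound for 48 hours at 5 concentrations. Step 3: Interpolate endpoints linearly; if unreached, use highest concentration. GI50 marks 50% less growth.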 Active and inactive are the calls of the source. Rule as the data show it: active = GI50 up to about 1.1 µM and inactive = higher.

Turning to `O=C1c2ccccc2C2(O)Nc3c(ccc4ccccc34)C12O` (centres undefined), the GI50 was > 100 µM (inactive) in test [1]; > 100 µM (inactive) in [2]; > 100 µM (inactive) in test [3]; > 100 µM (inactive) in test [4]; over 100 µM in test [5]; > 100 µM (inactive) in [6]. Also, the GI50 was > 100 µM (inactive) in test [7]; 39 µM (inactive) in [8]; > 100 µM (inactive) in [9]; > 100 µM (inactive) in [10]; 99.5 µM (inactive) in test [11]; > 100 µM (inactive) in test [12]. The GI50 in [13], in [14], in [15], in test [16] and in test [17] was > 100 µM (inactive) each time.
As to `COC(=O)[C@@H]1C(=O)O[C@@H](c2ccc3c(c2)OCO3)[C@@H]1C(=O)OC.COC(=O)[C@H]1C(=O)O[C@@H](c2ccc3c(c2)OCO3)[C@@H]1C(=O)OC`, the GI50 in test [1] is > 100 µM (inactive); in test [2] it was > 100 µM (inactive); in test [3] it was > 100 µM (inactive); in [4] it was > 100 µM (inactive); in test [5], over 100 µM; in test [6], > 100 µM (inactive). In addition, the GI50 in test [7], in test [8], in [9], in test [10], in test [11] and in [12] was > 100 µM (inactive) in each case. In addition, the GI50 in test [13], in [14], in test [15], in test [16] and in [17] was > 100 µM (inactive) throughout.
As for `N#CC12CC3(CCC1CCC1(C2)OCCO1)OCCO3` (centres undefined), the GI50 in test [1] is > 100 µM (inactive); in test [2] it was > 100 µM (inactive); in test [3], > 100 µM (inactive); in test [4], > 100 µM (inactive); in test [5] it was over 100 µM; in test [7], > 100 µM (inactive). In addition, the GI50 in [8], in test [9], in test [10], in [11], in [12] and in test [13] was > 100 µM (inactive) in each case. In addition, the GI50 in test [14], in test [15], in [16] and in test [17] was > 100 µM (inactive) each time.
Consider `O=C(CCc1nnc2s/c(=C\c3ccccc3)c(=O)n12)Nc1cc(Cl)ccc1Cl`, for which the GI50 in test [1] is > 100 µM (inactive); in test [2] it was > 100 µM (inactive); in test [3], > 100 µM (inactive); in test [4], 24 µM (inactive); in test [5] it was 34.2 µM; in [6] it was > 100 µM (inactive). The GI50 in test [7], in test [8], in [9], in test [10], in [11] and in [12] was > 100 µM (inactive) throughout. The GI50 in test [13], in test [14], in test [15], in [16] and in test [17] was > 100 µM (inactive) in each case.
In the case of `C=CCN(N=O)C(=O)ON1C(=O)CCC1=O`, the GI50 is > 100 µM (inactive) in test [1]; > 100 µM (inactive) in test [2]; > 100 µM (inactive) in test [3]; > 100 µM (inactive) in test [4]; over 100 µM in [5]; > 100 µM (inactive) in test [6]. The GI50 in test [7] is > 100 µM (inactive); in test [8], > 100 µM (inactive); in test [9] it was > 100 µM (inactive); in test [10], > 100 µM (inactive); in [11], > 100 µM (inactive); in [12], 0.0681 µM (active). The GI50 in test [13], in test [14], in test [15], in [16] and in [17] was > 100 µM (inactive) throughout.
In the case of `COCCCCCC(=O)CP(=O)(OC)OC`, the GI50 in test [1] was > 100 µM (inactive); in test [2] it was > 100 µM (inactive); in test [3], > 100 µM (inactive); in [4], > 100 µM (inactive); in test [5], over 100 µM; in test [6], > 100 µM (inactive). In addition, the GI50 in test [7], in test [8], in test [9], in test [10], in test [11] and in test [12] was > 100 µM (inactive) each time. Besides, the GI50 in [13], in [14], in test [15], in test [16] and in test [17] was > 100 µM (inactive) each time.
In the case of `CCC(C)c1cccc(C)c1NC(=O)C(=O)Cc1nc2ccccc2s1` (centres undefined), the GI50 in test [1] was > 100 µM (inactive); in [2], > 100 µM (inactive); in [3], > 100 µM (inactive); in test [4], > 100 µM (inactive); in test [5], over 100 µM; in test [6], > 100 µM (inactive). Moreover, the GI50 in test [7], in test [8], in test [9], in [10], in test [11] and in test [12] was > 100 µM (inactive) throughout. The GI50 in test [13], in test [14], in test [15], in test [16] and in [17] was > 100 µM (inactive) each time.
As to `CC1(C)CCC(Sc2ccccc2)O1` (centres undefined), the GI50 is > 100 µM (inactive) in test [1]; > 100 µM (inactive) in [2]; > 100 µM (inactive) in [3]; > 100 µM (inactive) in test [4]; over 100 µM in [5]; > 100 µM (inactive) in test [7]. Moreover, the GI50 in [8], in test [9], in test [10], in test [11], in [13] and in [14] was > 100 µM (inactive) throughout. Besides, the GI50 in [15], in test [16] and in test [17] was > 100 µM (inactive) throughout.
Take `Nc1ccccc1N`: the GI50 in test [1] was > 100 µM (inactive); in test [2] it was > 100 µM (inactive); in [4], > 100 µM (inactive); in test [5], over 100 µM; in [6], > 100 µM (inactive); in test [7], > 100 µM (inactive). Further, the GI50 is 36.7 µM (inactive) in test [8]; > 100 µM (inactive) in test [9]; > 100 µM (inactive) in [10]; > 100 µM (inactive) in test [11]; > 100 µM (inactive) in test [12]; 32 µM (inactive) in test [13]. The GI50 in test [14], in test [15], in test [16] and in test [17] was > 100 µM (inactive) throughout.

These data come from ChEMBL document CHEMBL1201862, “PubChem BioAssay data set” (2004).
